In paper PMC7344628, “Bone-Seeking Matrix Metalloproteinase Inhibitors for the Treatment of Skeletal Malignancy” (Pharmaceuticals, 2020):
Like-named read-outs stand apart in the source and are kept apart here.

Key:
Experiment in all cases: fluorogenic peptide substrate assay
Assay type in all cases: biochemical
[1] = target: T1, MMP-13 (Homo sapiens, UniProt P45452)
T1 construct: gene MMP13
Excerpt: fluorogenic peptide substrate assay on MMP-13

[2] = target: T2, MMP-8 (Homo sapiens, UniProt P22894)
T2 construct: gene MMP8
T2 sequence (P22894 100-262 limits assumed): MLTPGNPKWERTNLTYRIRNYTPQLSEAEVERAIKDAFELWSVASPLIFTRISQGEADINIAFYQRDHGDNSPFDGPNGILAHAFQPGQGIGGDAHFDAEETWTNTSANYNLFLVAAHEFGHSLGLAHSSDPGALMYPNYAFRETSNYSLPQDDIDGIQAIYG
Excerpt: fluorogenic peptide substrate assay on MMP-8

[3] = target: T3, MMP-9 (Homo sapiens, UniProt P14780)
T3 construct: gene MMP9
T3 sequence (P14780 107-444 limits assumed): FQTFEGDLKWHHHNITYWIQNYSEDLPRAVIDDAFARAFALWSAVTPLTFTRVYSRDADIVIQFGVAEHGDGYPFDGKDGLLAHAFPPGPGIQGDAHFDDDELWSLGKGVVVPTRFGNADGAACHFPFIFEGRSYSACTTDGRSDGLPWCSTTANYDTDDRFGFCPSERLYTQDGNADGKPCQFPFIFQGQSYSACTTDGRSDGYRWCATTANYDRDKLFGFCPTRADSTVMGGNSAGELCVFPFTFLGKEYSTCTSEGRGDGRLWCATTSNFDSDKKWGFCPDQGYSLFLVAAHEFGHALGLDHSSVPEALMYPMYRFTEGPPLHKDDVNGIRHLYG
Excerpt: fluorogenic peptide substrate assay on MMP-9

[4] = target: T4, MMP-2 (Homo sapiens, UniProt P08253)
T4 construct: gene MMP2
T4 sequence (P08253 110-446 limits assumed): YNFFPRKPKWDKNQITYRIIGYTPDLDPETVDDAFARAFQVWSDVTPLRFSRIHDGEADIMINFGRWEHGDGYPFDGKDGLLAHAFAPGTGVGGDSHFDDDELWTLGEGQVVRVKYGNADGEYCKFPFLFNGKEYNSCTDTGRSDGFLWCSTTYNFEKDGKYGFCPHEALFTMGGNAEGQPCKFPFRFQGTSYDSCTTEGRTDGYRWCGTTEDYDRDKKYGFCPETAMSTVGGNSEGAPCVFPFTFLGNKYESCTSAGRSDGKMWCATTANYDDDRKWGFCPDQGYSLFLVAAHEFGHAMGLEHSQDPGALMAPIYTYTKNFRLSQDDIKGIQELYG
Excerpt: fluorogenic peptide substrate assay on MMP-2

Structure (SMILES) | IC50 [1] [µM] | IC50 [2] [µM] | IC50 [3] [µM] | IC50 ([4]; OmniMMP 2.5 µM or OmniMMP RED 1 µM, pH 7.5, 1 mM CaCl2, 1 µM ZnCl2, 15 min preincubation, 37 °C) [µM] | IC50 [4] [µM]
O=P(O)(O)C(NS(=O)(=O)c1ccc(-c2ccccc2)cc1)P(=O)(O)O [ML 115] | 0.74 ± 0.06 | 0.4 ± 0.03 | > 100 | 0.14 ± 0.04 | 
O=C(Nc1ccccc1)Nc1ccc(S(=O)(=O)NC(P(=O)(O)O)P(=O)(O)O)cc1 [compound 4, (4-(3-phenylureido)phenylsulfonylamino)methyl-1,1-bisphosphonic acid] | 15 ± 6 | 48 ± 15 | 13.8 ± 0.6 |  | 2.8 ± 0.6
O=C(Nc1ccc(S(=O)(=O)NC(P(=O)(O)O)P(=O)(O)O)cc1)c1ccccc1 [compound 6, (4-benzamidophenylsulfonylamino)methyl-1,1-bisphosphonic acid] | 2 ± 0.7 | 1.88 ± 0.03 | 2.3 ± 0.1 |  | 2.75 ± 0.35
Cc1ccc(C(=O)Nc2ccc(S(=O)(=O)NC(P(=O)(O)O)P(=O)(O)O)cc2)cc1 [compound 8, (4-(4-methylbenzamido)phenylsulfonylamino)methyl-1,1-bisphosphonic acid] | 3.3 ± 0.7 | 0.78 ± 0.18 | 0.67 ± 0.25 |  | 0.958 ± 0.018
O=C(Nc1ccc(S(=O)(=O)NC(P(=O)(O)O)P(=O)(O)O)cc1)c1ccc(Br)cc1 [compound 9, (4-(4-bromobenzamido)phenylsulfonylamino)methyl-1,1-bisphosphonic acid] | 0.14 ± 0.05 | 0.66 ± 0.13 | 0.088 ± 0.012 |  | 0.67 ± 0.16
O=C(Nc1ccc(S(=O)(=O)NC(P(=O)(O)O)P(=O)(O)O)cc1)c1cccc(Br)c1 [compound 10, (4-(3-bromobenzamido)phenylsulfonylamino)methyl-1,1-bisphosphonic acid] | 15.9 ± 1.9 | 17 ± 4 | > 100 |  | 4.2 ± 1.3
O=C(Nc1ccc(S(=O)(=O)NC(P(=O)(O)O)P(=O)(O)O)cc1)c1cccc2ccccc12 [compound 12, (4-(1-naphthamido)phenylsulfonylamino)methyl-1,1-bisphosphonic acid] | 12 ± 5 | 25 ± 12 | 21.5 ± 0.7 |  | 2.7 ± 1

Continued, values first:

IC50 [1] [µM] | IC50 [2] [µM] | IC50 [3] [µM] | IC50 ([4]; OmniMMP 2.5 µM or OmniMMP RED 1 µM, pH 7.5, 1 mM CaCl2, 1 µM ZnCl2, 15 min preincubation, 37 °C) [µM] | IC50 [4] [µM] | Structure (SMILES)
68.9 ± 10.2 | 66 ± 8 | > 100 |  | 19 ± 3 | Nc1ccc(S(=O)(=O)NC(P(=O)(O)O)P(=O)(O)O)cc1 [compound 1, (4-aminophenylsulfonylamino)methyl-1,1-bisphosphonic acid]
9.6 ± 0.4 | 26.8 ± 0.9 | > 100 |  | 18.7 ± 0.8 | O=P(O)(O)C(NS(=O)(=O)c1ccc2ccccc2c1)P(=O)(O)O [compound 2, (2-naphthylsulfonylamino)methyl-1,1-bisphosphonic acid]
14.6 ± 0.8 | 31.3 ± 1.2 | 57 ± 2 |  | 15.2 ± 0.5 | O=P(O)(O)C(NS(=O)(=O)c1cccc2ccccc12)P(=O)(O)O [compound 3, (1-naphthylsulfonylamino)methyl-1,1-bisphosphonic acid]
18.1 ± 1.5 | 45 ± 5 | 15 ± 6 |  | 5.3 ± 0.4 | O=C1c2ccccc2C(=O)N1c1ccc(S(=O)(=O)NC(P(=O)(O)O)P(=O)(O)O)cc1 [compound 5, (4-(1,3-dioxoisoindolin-2-yl)phenylsulfonylamino)methyl-1,1-bisphosphonic acid]
28 ± 4 | 79 ± 8 | 50 ± 11 |  | 9 ± 0.8 | O=C(Nc1cccc(S(=O)(=O)NC(P(=O)(O)O)P(=O)(O)O)c1)c1ccccc1 [compound 7, (3-benzamidophenylsulfonylamino)methyl-1,1-bisphosphonic acid]
0.61 ± 0.16 | 0.46 ± 0.11 | 0.43 ± 0.1 |  | 1.7 ± 0.3 | O=C(Nc1ccc(S(=O)(=O)NC(P(=O)(O)O)P(=O)(O)O)cc1)c1ccc([N+](=O)[O-])cc1 [compound 11, (4-(4-nitrobenzamido)phenylsulfonylamino)methyl-1,1-bisphosphonic acid]
9.3 ± 0.5 | 16.6 ± 1.9 | 76 ± 8 |  | 3.9 ± 0.5 | O=C(Nc1ccc(S(=O)(=O)NC(P(=O)(O)O)P(=O)(O)O)cc1)c1ccc2ccccc2c1 [compound 13, (4-(2-naphthamido)phenylsulfonylamino)methyl-1,1-bisphosphonic acid]
